# Laboratory results taken from patent US5703097A, “5-pyrrolyl-2-pyridylmethylsulfinyl benzimidazole derivatives” (priority 1994, dated 1997).
# Legend:
# gastric juice secretion = test: Effect on inhibition of gastric juice secretion, in vivo, Shay method (TEST 2); set-up: species or system rat (SD male rats); details: for Volume of gastric juice / Inhibition rate, gastric juice secretion: 5 hours; for Volume of gastric juice: pylorus-ligated rats; for Inhibition rate, gastric juice secretion: vs normal group
# Procedure: (§1) The specific test methods are as follows.
# (§2) SD male rats (200±20 g) were fasted for 24 hours, except for water, and then anesthesized with ether. The abdomen of rats was incised and then the pylorus was ligated. The test compounds were suspended or dissolved in 5% CMC (carboxymethylcellulose) and injected into duodenum. After the abdomen was sutured, the rats were allowed to stand for 5 hours and then sacrificed with ether. The stomach was removed from rats and the gastric juices were collected. The gastric juice was centrifuged with 10,000 xg for 10 minutes at 4° C. to remove the precipitate. The amount of gastric juice and acidity were determined using pH 7.0 end point assay with 0.02N NaOH and then the total acid output was calculated.
# H^+ /K^+ -ATPase = target: T1, H^+ /K^+ -ATPase (Oryctolagus cuniculus, UniProt P27112); test: Inhibition of enzyme activity: in vitro inhibition of H+/K+-ATPase (TEST 1); format: biochemical, rabbit; details: 5 min pre-incubation at 37° C., 4 mM ATP
# T1 construct: The gastric mucous membrane was removed from a rabbit; from tissue; host or cells: rabbit gastric mucosa, microsomal fraction (77,000 g)
# Procedure: In this test, omeprazole [5-methoxy-2-[[(4-methoxy-3,5-dimethyl-2-pyridinyl)methyl]sulfinyl]-1H-benzimidazole] was used as the control compound.
# The gastric mucous membrane was removed from a rabbit and then centrifuged with 77,000 g using a ultra-centrifuge to separate the microsomal fraction which was used as the source of H^+ /K^+ -ATPase enzyme for this test. 60 μg of H^+ /K^+ -ATPase was pre-incubated with the sample (the compound according to the present invention) for 5 minutes at 37° C. and then 4 mM ATP as the substrate and 4 mM Mg^++, 20 mM K^+ as the cofactor were added thereto. Then, the amount of inorganic phosphorus thus produced was determined using a spectrophotometer at 660 nm and converted into the amount of protein. […]
# gastric acidity = test: Effect on inhibition of acidity (total acid output), in vivo, Shay method (TEST 2); set-up: species or system rat (SD male rats); details: for Volume (acidity, total acid output) / Inhibition rate, acidity: 5 hours; for Volume (acidity, total acid output): pylorus-ligated rats; for Inhibition rate, acidity: vs normal group
# Procedure: as §1, §2
# ICR (male, female) mouse = test: in vivo; details: po
# Procedure: (§3) Five weeks aged ICR (male, female) mouse were pre-bred in the breeding cage for one week and then the animals showing a smooth gain in body weight were randomly selected and used in this test. The amount to be administered to the test animals was established on the basis of the maximum dose of 4,000 mg/kg with the common ratio of 1.5.
# (§4) The test compounds in a powder form were suspended in 0.5% methylcellulose and administered per oral using a syringe. The other specific conditions for administration are described in the following.
# (§5) In the above test, the control group received only 0.5% methylcellulose.
# in vivo = details: mouse, po
# Procedure: as §3, §4, §5
# [1] = in words, even at a lower dose than that of the known anti-ulcer agent
# T1 sequence (P27112 2-1035 limits assumed): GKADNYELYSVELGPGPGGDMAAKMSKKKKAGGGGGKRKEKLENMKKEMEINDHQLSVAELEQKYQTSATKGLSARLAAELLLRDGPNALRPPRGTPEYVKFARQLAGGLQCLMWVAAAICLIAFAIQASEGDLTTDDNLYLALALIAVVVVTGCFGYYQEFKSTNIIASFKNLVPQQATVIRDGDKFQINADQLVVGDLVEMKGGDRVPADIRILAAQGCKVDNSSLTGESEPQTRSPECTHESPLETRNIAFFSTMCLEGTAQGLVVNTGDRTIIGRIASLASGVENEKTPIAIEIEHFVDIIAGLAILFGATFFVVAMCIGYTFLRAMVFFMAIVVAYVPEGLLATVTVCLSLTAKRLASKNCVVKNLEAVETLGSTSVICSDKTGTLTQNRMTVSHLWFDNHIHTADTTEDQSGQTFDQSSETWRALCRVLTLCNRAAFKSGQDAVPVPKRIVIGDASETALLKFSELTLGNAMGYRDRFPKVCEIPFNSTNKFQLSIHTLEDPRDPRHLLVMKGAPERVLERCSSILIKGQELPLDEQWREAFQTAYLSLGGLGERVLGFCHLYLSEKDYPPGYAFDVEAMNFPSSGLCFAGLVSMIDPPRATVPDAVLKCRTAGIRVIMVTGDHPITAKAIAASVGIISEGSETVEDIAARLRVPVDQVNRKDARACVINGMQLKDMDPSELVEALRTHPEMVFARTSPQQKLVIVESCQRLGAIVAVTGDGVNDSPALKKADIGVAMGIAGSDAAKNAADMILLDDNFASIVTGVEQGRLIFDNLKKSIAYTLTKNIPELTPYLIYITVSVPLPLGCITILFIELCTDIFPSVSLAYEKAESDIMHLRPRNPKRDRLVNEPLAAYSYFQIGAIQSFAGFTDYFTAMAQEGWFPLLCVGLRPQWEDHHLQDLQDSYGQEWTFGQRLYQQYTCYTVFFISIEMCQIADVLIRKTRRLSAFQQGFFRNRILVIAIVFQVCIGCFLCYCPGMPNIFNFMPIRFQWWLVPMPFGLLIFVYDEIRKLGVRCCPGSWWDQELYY
# T1 sequence (P18597 whole entry partner): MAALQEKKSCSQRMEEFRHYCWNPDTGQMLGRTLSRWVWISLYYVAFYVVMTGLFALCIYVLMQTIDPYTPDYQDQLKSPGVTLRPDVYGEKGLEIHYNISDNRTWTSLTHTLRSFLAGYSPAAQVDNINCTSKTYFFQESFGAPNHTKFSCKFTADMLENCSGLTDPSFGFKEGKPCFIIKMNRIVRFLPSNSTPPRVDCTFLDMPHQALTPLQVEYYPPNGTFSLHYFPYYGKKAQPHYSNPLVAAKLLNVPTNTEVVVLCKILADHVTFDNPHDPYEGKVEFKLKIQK
compound,measurement,setting,value
"COc1ccnc(C[S+]([O-])c2nc3cc(-n4cccc4)ccc3[nH]2)c1C (stereo not drawn) [Compound 2, 2-[[(4-methoxy-3-methyl)-2-pyridinyl]methylsulfinyl]-5-(1H-pyrrol-1-yl)-1H-benzimidazole]",Volume of gastric juice,"gastric juice secretion; 3 mg/kg, into duodenum",1.98 ± 0.23 ml/100 g BW
same,"Inhibition rate, gastric juice secretion","gastric juice secretion; 3 mg/kg, into duodenum",46.45%
same,Volume of gastric juice,"gastric juice secretion; 10 mg/kg, into duodenum",1.31 ± 0.10 ml/100 g BW
same,"Inhibition rate, gastric juice secretion","gastric juice secretion; 10 mg/kg, into duodenum",64.55%
same,Volume of gastric juice,"gastric juice secretion; 30 mg/kg, into duodenum",0.99 ± 0.14 ml/100 g BW
same,"Inhibition rate, gastric juice secretion","gastric juice secretion; 30 mg/kg, into duodenum",73.11%
same,ED50,"gastric juice secretion; Rattus norvegicus, 5 h, rats, into duodenum, read-out: ED50 for the effect on inhibition of gastric acid secretion",3.6 mg/kg
same,effect for inhibition of gastric acid secretion,gastric juice secretion; in words,good effects
same,inhibition of gastric juice secretion,gastric juice secretion; [1],strong inhibition of gastric juice secretion
same,IC50,H^+ /K^+ -ATPase,23 µM
same,"Volume (acidity, total acid output)","gastric acidity; 3 mg/kg, into duodenum",31.09 ± 4.10 μ Eq/hr
same,"Inhibition rate, acidity","gastric acidity; 3 mg/kg, into duodenum",60.08%
same,"Volume (acidity, total acid output)","gastric acidity; 10 mg/kg, into duodenum",10.20 ± 1.93 μ Eq/hr
same,"Inhibition rate, acidity","gastric acidity; 10 mg/kg, into duodenum",86.90%
same,"Volume (acidity, total acid output)","gastric acidity; 30 mg/kg, into duodenum",5.32 ± 3.30 μ Eq/hr
same,"Inhibition rate, acidity","gastric acidity; 30 mg/kg, into duodenum",93.17%
same,ED50,"gastric acidity; Rattus norvegicus, 5 h, rats, into duodenum",1.6 mg/kg
same,effect for lowering acidity,gastric acidity; in words,good effects
same,acidity lowering effect,gastric acidity; [1],high acidity lowering effect
same,LD50,"ICR (male, female) mouse",> 4000.0 mg/kg
same,change in body weight,"ICR (male, female) mouse",does not affect the normal change in body weight
same,change in internal and external organs,"ICR (male, female) mouse",no effect on the internal and external organs
same,safety,"ICR (male, female) mouse",very safe compound
same,LD50,in vivo,≥ 4000 mg/kg
